According to patent publication US4108991A, “N-aminosulfenyl derivatives of aldicarb” (priority 1976, dated 1978):

Legend:
Milkweed bug = experiment: Residual (7-day) contact activity, milkweed bug; assay type: in vivo, Oncopeltus fasciatus [Dallas]; conditions: Oncopeltus fasciatus, 168 h, residual 7-day, MWB, read-out: Percent Kill
Description: (§1) Initial Contact Activity: One half gram of test compound was dissolved in 40 ml of acetone and this solution was dispersed in 360 ml of water containing one drop of isooctylphenyl polyethoxyethanol. Aliquots of this solution, which corresponds to 1250 ppm of active ingredient, were diluted with an appropriate amount of water to provide solutions containing various concentrations of active ingredient. Test organisms and techniques were as follows: The activity against the Mexican bean beetle (Epilachna varivestis Muls.) and the southern armyworm (Spodoptera eridania [Cram.]) was evaluated by dipping the leaves of pinto bean plants into the test solution and infesting the leaves with the appropriate immature-form insects when the foiliage had dried; the activity against the pea aphid (Acyrthosiphon pisum [Harris]) was evaluated on broad bean plants whose leaves were dipped before infestation with adult aphids; the activity against two-sotted spider mites (Tetranychus urticae Koch) was evaluated on pinto bean plants whose leaves were dipped after infestation with adult mites; the activity against the milkweed bug (Oncopeltus fasciatus [Dallas]), and the plum curculio (Conotrachelus nenuphar [Herbst]) was evaluated by spraying the test solutions into glass dishes or jars containing the adult insects; the activity against the confused flour beetle (Tribolium confusum duVal) was evaluated by introducing the insects into glass dishes which had been previously sprayed with test solution and allowed to dry. All organisms in the test were maintained in a holding room at 80° F and 50% relative humidity for an exposure period of 48 hours. At the end of this time, the dead and living insects or mites were counted, and the percent kill was calculated.
(§2) Residual Contact Activity: The residual contact activity of the compounds was determined on the same organisms using the techniques described above, except that in each case the treated surface was allowed to dry and was exposed to normal light and air for seven days before introduction of the mites or insects.

Plum curculio = experiment: Residual (7-day) contact activity, plum curculio; assay type: in vivo, Conotrachelus nenuphar [Herbst]; conditions: Conotrachelus nenuphar, 168 h, residual 7-day, PC, read-out: Percent Kill
Description: as §1, §2

Two-spotted spider mite [1] = experiment: Residual (7-day) contact activity, two-spotted spider mite; assay type: in vivo, Tetranychus urticae Koch; conditions: Tetranychus urticae, 168 h, residual 7-day, SM, read-out: Percent Kill
Description: as §1, §2

Two-spotted spider mite [2] = experiment: Systemic activity, soil-watering, two-spotted spider mite; assay type: in vivo, Tetranychus urticae Koch; conditions: Tetranychus urticae, 48 h, systemic, SM, read-out: Percent Kill
Description: as §1
(§3) Systemic Activity: Systemic activity was measured using a soil-watering technique. Test organisms were Mexican bean beetle, southern armyworm, pea aphid, and mites on plants as described above in this Example. With appropriate precautions to avoid contact of the solution with the test plant surfaces, 25 ml of a test solution, prepared as above to contain the desired amount of active ingredient, were poured evenly over the surface of the soil in which the plant was growing. The treated plants were maintained under normal growing conditions for three days to permit translocation of the toxicant, after which the leaves were infested. Two days after infestation, counts of living and dead insects were made.

Granary Weevil [3] = experiment: Residual (7-day) contact activity, granary weevil; assay type: in vivo; conditions: Sitophilus granarius, 168 h, residual 7-day, GW, read-out: Percent Kill
Pea aphid [4] = experiment: Residual (7-day) contact activity, pea aphid; assay type: in vivo, Acyrthosiphon pisum [Harris]; conditions: Acyrthosiphon pisum, 168 h, residual 7-day, PA, read-out: Percent Kill
Description: as §1, §2

Mexican bean beetle = experiment: Systemic activity, soil-watering, Mexican bean beetle; assay type: in vivo, Epilachna varivestis Muls.; conditions: Epilachna varivestis, 48 h, systemic, BB, read-out: Percent Kill
Description: as §1, §3

Pea aphid [5] = experiment: Initial contact activity, leaf dip, pea aphid; assay type: in vivo, Acyrthosiphon pisum [Harris]; conditions: Acyrthosiphon pisum, foliar, 48 h, initial, PA, 48 hours, read-out: Percent Kill
Description: as §1

Pea aphid [6] = experiment: Systemic activity, soil-watering, pea aphid; assay type: in vivo, Acyrthosiphon pisum [Harris]; conditions: Acyrthosiphon pisum, 48 h, systemic, PA, read-out: Percent Kill
Description: as §1, §3

Southern armyworm [7] = experiment: Systemic activity, soil-watering, southern armyworm; assay type: in vivo, Spodoptera eridania [Cram.]; conditions: Spodoptera eridania, 48 h, systemic, AW, read-out: Percent Kill
Description: as §1, §3

Granary Weevil [8] = experiment: Initial contact activity, granary weevil; assay type: in vivo; conditions: Sitophilus granarius, 48 h, initial, GW, 48 hours, read-out: Percent Kill
[9] = Toxicity to rats, acute oral median lethal dose (LD50), Method A; assay type: in vivo, young female albino rats, derived from Sprague-Dawley stock; conditions: in vivo, rat, corn oil, 14 days observation
Description: (§4) Method A: Young female albino rats, derived from Sprague-Dawley stock and weighing between 175 and 200 g, were used. An initial screening was conducted to determine the general level of toxicity of the test compounds and to establish the dosing range to be used with each compound. The test materials were suspended in corn oil and administered directly into the stomachs of the rats, using a hypodermic syringe equipped with a ball-tipped intubating needle. A range of dosing levels was employed utilizing two rats at each level. […] This method was used to determine the toxicity to rats of the compounds of Examples I, II, and III and aldicarb.

rats = experiment: as above; assay type: in vivo, young female albino rats, derived from Sprague-Dawley stock; conditions: rat
Description: as §4

Southern armyworm [10] = experiment: Initial contact activity, leaf dip, southern armyworm; assay type: in vivo, Spodoptera eridania [Cram.]; conditions: Spodoptera eridania, foliar, 48 h, initial, AW, 48 hours, read-out: Percent Kill
Description: as §1

Confused flour beetle = experiment: Residual (7-day) contact activity, confused flour beetle; assay type: in vivo, Tribolium confusum duVal; conditions: Tribolium confusum, 168 h, residual 7-day, FB, read-out: Percent Kill
Description: as §1, §2

CSC(C)(C)C=NOC(=O)N(C)SN1CCOCC1 [Example II, 2-methyl-2-(methylthio)propanol O-[(N-methyl-N-morpholinosulfenyl)carbamoyl]oxime]
mortality at 156 ppm (Milkweed bug; 156 PPM): 100%
mortality at 312 ppm (Milkweed bug; 312 PPM): 100%
mortality at 1250 ppm (Milkweed bug; 1250 PPM): 100%
mortality at 156 ppm (Plum curculio; 156 PPM): 10%
mortality at 312 ppm (Plum curculio; 312 PPM): 5%
mortality at 1250 ppm (Plum curculio; 1250 PPM): 37%
mortality at 156 ppm (Two-spotted spider mite [1]; 156 PPM): 76%
mortality at 312 ppm (Two-spotted spider mite [1]; 312 PPM): 93%
mortality at 1250 ppm (Two-spotted spider mite [1]; 1250 PPM): 97%
mortality at 5 ppm (Two-spotted spider mite [2]; 5 PPM): 1.4%
mortality at 10 ppm (Two-spotted spider mite [2]; 10 PPM): 38%
mortality at 39 ppm (Two-spotted spider mite [2]; 39 PPM): 69%
mortality at 312 ppm (Granary Weevil [3]; 312 PPM): 20%
mortality at 1250 ppm (Granary Weevil [3]; 1250 PPM): 100%
mortality at 156 ppm (Pea aphid [4]; 156 PPM): 0%
mortality at 312 ppm (Pea aphid [4]; 312 PPM): 0%
mortality at 1250 ppm (Pea aphid [4]; 1250 PPM): 93%
mortality at 39 ppm (Mexican bean beetle; 39 PPM): 58%
mortality at 156 ppm (Mexican bean beetle; 156 PPM): 100%
mortality at 10 ppm (Pea aphid [5]; 10 PPM): 78%
mortality at 39 ppm (Pea aphid [5]; 39 PPM): 100%
mortality at 156 ppm (Pea aphid [5]; 156 PPM): 100%
mortality at 1250 ppm (Pea aphid [5]; 1250 PPM): 100%
mortality at 10 ppm (Pea aphid [6]; 10 PPM): 40%
mortality at 39 ppm (Pea aphid [6]; 39 PPM): 100%
mortality at 312 ppm (Southern armyworm [7]; 312 PPM): 100%
mortality at 625 ppm (Southern armyworm [7]; 625 PPM): 100%
mortality at 156 ppm (Granary Weevil [8]; 156 PPM): 100%
mortality at 312 ppm (Granary Weevil [8]; 312 PPM): 100%
mortality at 1250 ppm (Granary Weevil [8]; 1250 PPM): 100%
LD50 at 336 h [9]: 1.2 mg/kg
LD50 relative to that of aldicarb (rats): 2.4 times
Enhancement LD50 Derivative/LD50 Aldicarb (rats; ratio to aldicarb): 2.4
mortality at 156 ppm (Southern armyworm [10]; 156 PPM): 0%
mortality at 312 ppm (Southern armyworm [10]; 312 PPM): 0%
mortality at 625 ppm (Southern armyworm [10]; 625 PPM): 70%
mortality at 1250 ppm (Southern armyworm [10]; 1250 PPM): 100%
mortality at 312 ppm (Confused flour beetle; 312 PPM): 0%
mortality at 1250 ppm (Confused flour beetle; 1250 PPM): 2.5%
